# How the values were obtained:
# [1] = target: T1, Peroxisome proliferator-activated receptor gamma (Homo sapiens, UniProt P37231); experiment: Modulator activity at GAL4-fused human PPARgamma LBD (unknown origin) transfected in African green monkey CV1 cells assessed as receptor transactivation by luciferase reporter gene assay; assay type: cell-based, CV-1
# T1 sequence (P37231 whole entry): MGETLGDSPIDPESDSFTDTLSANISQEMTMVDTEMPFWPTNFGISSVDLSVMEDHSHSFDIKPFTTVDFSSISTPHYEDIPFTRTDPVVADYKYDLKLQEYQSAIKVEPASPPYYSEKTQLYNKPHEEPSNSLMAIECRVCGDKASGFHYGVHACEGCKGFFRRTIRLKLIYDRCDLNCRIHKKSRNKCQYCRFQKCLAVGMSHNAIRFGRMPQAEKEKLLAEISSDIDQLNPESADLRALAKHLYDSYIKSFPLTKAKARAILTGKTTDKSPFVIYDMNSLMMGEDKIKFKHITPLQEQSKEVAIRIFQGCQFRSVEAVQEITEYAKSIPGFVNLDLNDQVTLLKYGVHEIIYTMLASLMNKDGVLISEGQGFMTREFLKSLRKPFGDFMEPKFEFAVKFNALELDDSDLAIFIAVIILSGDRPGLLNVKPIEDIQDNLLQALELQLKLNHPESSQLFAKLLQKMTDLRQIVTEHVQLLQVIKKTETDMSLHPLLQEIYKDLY
# [2] = target: T2, Peroxisome proliferator-activated receptor alpha (Homo sapiens, UniProt Q07869); experiment: Modulator activity at GAL4-fused human PPARalpha LBD (unknown origin) transfected in African green monkey CV1 cells assessed as receptor transactivation by luciferase reporter gene assay; assay type: cell-based, CV-1
# T2 sequence (Q07869 whole entry): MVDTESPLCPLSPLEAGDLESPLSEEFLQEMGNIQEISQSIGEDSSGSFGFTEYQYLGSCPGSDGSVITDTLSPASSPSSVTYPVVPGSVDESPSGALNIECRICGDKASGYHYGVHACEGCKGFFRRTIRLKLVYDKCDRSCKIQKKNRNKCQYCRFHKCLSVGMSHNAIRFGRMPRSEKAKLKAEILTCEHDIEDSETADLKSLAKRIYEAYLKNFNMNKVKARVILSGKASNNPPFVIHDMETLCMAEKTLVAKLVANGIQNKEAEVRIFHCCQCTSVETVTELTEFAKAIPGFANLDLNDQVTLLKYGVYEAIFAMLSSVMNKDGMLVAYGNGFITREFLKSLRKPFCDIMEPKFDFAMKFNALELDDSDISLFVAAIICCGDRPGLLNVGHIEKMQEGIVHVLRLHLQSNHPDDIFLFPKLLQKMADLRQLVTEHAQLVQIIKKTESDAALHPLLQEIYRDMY
# [3] = Selectivity index, ratio of EC50 for transactivation of GAL4-fused PPARalpha LBD (unknown origin) transfected in CV1 cells to EC50 for transactivation of GAL4-fused human PPARdelta LBD (128 to residue at C-terminus) transfected in African green monkey CV1 cells by luciferase reporter gene assay
# [4] = Clearance in CD-1 mouse at 3 mg/kg, iv; assay type: ADME, organism-based; details: in vivo
# [5] = Half life in CD-1 mouse at 3 mg/kg, iv; assay type: ADME, organism-based; details: in vivo
# [6] = target: T3, Peroxisome proliferator-activated receptor delta (Homo sapiens, UniProt Q03181)
# T3 sequence (Q03181 whole entry): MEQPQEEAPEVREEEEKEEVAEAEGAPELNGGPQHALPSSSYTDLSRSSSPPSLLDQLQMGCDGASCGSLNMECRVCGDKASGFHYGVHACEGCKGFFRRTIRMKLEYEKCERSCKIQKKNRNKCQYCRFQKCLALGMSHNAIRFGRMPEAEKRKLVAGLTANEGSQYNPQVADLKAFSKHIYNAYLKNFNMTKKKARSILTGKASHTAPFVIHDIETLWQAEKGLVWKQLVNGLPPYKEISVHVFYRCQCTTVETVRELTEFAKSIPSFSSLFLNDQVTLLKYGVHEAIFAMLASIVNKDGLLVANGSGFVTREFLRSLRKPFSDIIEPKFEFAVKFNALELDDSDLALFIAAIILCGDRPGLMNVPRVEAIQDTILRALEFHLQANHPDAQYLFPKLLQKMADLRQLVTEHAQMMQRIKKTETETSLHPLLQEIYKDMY
# Description: Modulator activity at GAL4-fused human PPARdelta LBD (128 to residue at C-terminus) transfected in African green monkey CV1 cells assessed as receptor transactivation by luciferase reporter gene assay
# [7] = AUC in CD-1 mouse at 3 mg/kg, iv; assay type: ADME, organism-based; set-up: dose 3 mg/kg; details: in vivo
EC50 [1],EC50 [2],clearance [4],half-life [5],EC50 [6],AUC [7],SMILES,Ratio EC50 [3]
> 10 µM,15.1 µM,,,,,Cc1cnc(-c2ccc(OC(F)F)cc2)n1Cc1ccccc1OCCC[C@@H](C)CC(=O)O,
> 10 µM,5.84 µM,180 mL/min/kg,12 min,0.0015 µM,280 ng·h/mL,C/C(=C\COc1ccccc1Cc1c(-c2ccc(-c3ccco3)cc2)noc1C)CCC(=O)O,>1000
> 10 µM,78.5 µM,,,0.02 µM,,Cc1ccc(-c2ncc(C)n2Cc2ccccc2OCCC[C@@H](C)CC(=O)O)cc1,
> 10 µM,7.25 µM,55 mL/min/kg,48 min,0.0095 µM,900 ng·h/mL,C/C(=C\COc1ccccc1Cc1sc(C)nc1-c1ccc(-c2ccco2)cc1)CCC(=O)O,>1000

# From ChEMBL document CHEMBL4715826, “Selective PPARδ Modulators Improve Mitochondrial Function: Potential Treatment for Duchenne Muscular Dystrophy (DMD)” (ACS Med Chem Lett, 2018)
